Results published in ChEMBL document CHEMBL1201861, “Genomics of Drug Sensitity in Cancer screening data, Wellcome Trust Sanger Institute”.

Legend:
Assay in all cases: cells
CP50-MEL-B = format: functional, cell-based; details: Homo sapiens;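 further: growth inhibition of the human cell line, measured with a cell viability read-out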
Description: SANGER: Inhibition of human CP50-MEL-B cell growth in a cell viability assay.

CW-2 = format: functional, cell-based, Homo sapiens; details: Homo sapiens, CW-2;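 further: growth inhibition of CW-2 cells, read out by a cell viability assay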
Description: SANGER: Inhibition of human CW-2 cell growth in a cell viability assay.

Calu-6 = format: functional, cell-based, Homo sapiens; details: Homo sapiens, Calu-6;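 further: growth of human Calu-6 cells, read out by a cell viability assay, IC50 marking inhibition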
Description: SANGER: Inhibition of human Calu-6 cell growth in a cell viability assay.

EW-11 = format: functional, cell-based, Homo sapiens; details: Homo sapiens, EW-11;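 further: growth inhibition of human EW-11 cells, measured with a cell viability assay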
Description: SANGER: Inhibition of human EW-11 cell growth in a cell viability assay.

GB-1 = format: functional, cell-based, Homo sapiens; details: Homo sapiens, GB-1;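 further: growth of GB-1 cells judged by a viability assay, IC50 marks the concentration inhibiting growth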
Description: SANGER: Inhibition of human GB-1 cell growth in a cell viability assay.

GCIY = format: functional, cell-based, Homo sapiens; details: Homo sapiens, GCIY;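 further: growth inhibition of the human GCIY cell line, read out by a cell viability assay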
Description: SANGER: Inhibition of human GCIY cell growth in a cell viability assay.

GT3TKB = format: functional, cell-based, Homo sapiens; details: Homo sapiens, GT3TKB;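 further: growth inhibition of the cell line, read out with a cell viability assay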
Description: SANGER: Inhibition of human GT3TKB cell growth in a cell viability assay.

HDLM-2 = format: functional, cell-based, Homo sapiens; details: Homo sapiens, HDLM-2;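 further: cell viability assay measuring suppression of HDLM-2 proliferation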
Description: SANGER: Inhibition of human HDLM-2 cell growth in a cell viability assay.

HOP-62 = format: functional, cell-based, Homo sapiens; details: Homo sapiens, HOP-62;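 further: cell growth inhibition determined with a viability assay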
Description: SANGER: Inhibition of human HOP-62 cell growth in a cell viability assay.

HT = format: functional, cell-based, Homo sapiens; details: Homo sapiens, HT
Description: SANGER: Inhibition of human HT cell growth in a cell viability assay.

JVM-3 = format: functional, cell-based, Homo sapiens; details: Homo sapiens, JVM-3;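 further: growth inhibition of human JVM-3 cells, read out with a cell viability assay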
Description: SANGER: Inhibition of human JVM-3 cell growth in a cell viability assay.

KARPAS-299 = format: functional, cell-based, Homo sapiens; details: Homo sapiens, KARPAS-299
Description: SANGER: Inhibition of human KARPAS-299 cell growth in a cell viability assay.

KINGS-1 = format: functional, cell-based, Homo sapiens; details: Homo sapiens, KINGS-1;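 further: cell viability assay measuring suppression of KINGS-1 cell growth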
Description: SANGER: Inhibition of human KINGS-1 cell growth in a cell viability assay.

KNS-81-FD = format: functional, cell-based, Homo sapiens; details: Homo sapiens, KNS-81-FD;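 further: growth inhibition of KNS-81-FD cells, read out with a cell viability assay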
Description: SANGER: Inhibition of human KNS-81-FD cell growth in a cell viability assay.

KY821 = format: functional, cell-based, Homo sapiens; details: Homo sapiens, KY821;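 further: growth inhibition of human KY821 cells, read out by a cell viability assay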
Description: SANGER: Inhibition of human KY821 cell growth in a cell viability assay.

LB1047-RCC = format: functional, cell-based, Homo sapiens; details: Homo sapiens, LB1047-RCC;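 further: inhibition of cell growth, determined with a cell viability assay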
Description: SANGER: Inhibition of human LB1047-RCC cell growth in a cell viability assay.

LB2241-RCC = format: functional, cell-based, Homo sapiens; details: Homo sapiens, LB2241-RCC;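 further: cell viability assay measuring how strongly the cultured human renal carcinoma line is prevented from growing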
Description: SANGER: Inhibition of human LB2241-RCC cell growth in a cell viability assay.

LB2518-MEL = format: functional, cell-based; details: Homo sapiens;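 further: growth inhibition of human LB2518-MEL cells, measured with a cell viability assay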
Description: SANGER: Inhibition of human LB2518-MEL cell growth in a cell viability assay.

LC-2-ad = format: functional, cell-based, Homo sapiens; details: Homo sapiens, LC-2-ad;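 further: growth inhibition of human LC-2-ad cells, read out with a cell viability assay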
Description: SANGER: Inhibition of human LC-2-ad cell growth in a cell viability assay.

LS-123 = format: functional, cell-based, Homo sapiens; details: Homo sapiens, LS-123
Description: SANGER: Inhibition of human LS-123 cell growth in a cell viability assay.

LU-134-A = format: functional, cell-based, Homo sapiens; details: Homo sapiens, LU-134-A
Description: SANGER: Inhibition of human LU-134-A cell growth in a cell viability assay.

MEG-01 = format: functional, cell-based, Homo sapiens; details: Homo sapiens, MEG-01;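 further: growth inhibition of MEG-01 cells, read out by a cell viability assay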
Description: SANGER: Inhibition of human MEG-01 cell growth in a cell viability assay.

MHH-NB-11 = format: functional, cell-based, Homo sapiens; details: Homo sapiens, MHH-NB-11;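 further: growth inhibition of human MHH-NB-11 cells, read out by a cell viability assay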
Description: SANGER: Inhibition of human MHH-NB-11 cell growth in a cell viability assay.

MHH-PREB-1 = format: functional, cell-based, Homo sapiens; details: Homo sapiens, MHH-PREB-1;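 further: cell viability assay measuring inhibition of proliferation of human MHH-PREB-1 cells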
Description: SANGER: Inhibition of human MHH-PREB-1 cell growth in a cell viability assay.

MS-1 = format: functional, cell-based, Homo sapiens; details: Homo sapiens, MS-1;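 further: growth inhibition of MS-1 cells, read out by cell viability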
Description: SANGER: Inhibition of human MS-1 cell growth in a cell viability assay.

MV4-11 = format: functional, cell-based, Homo sapiens, MV-4-11; details: Homo sapiens, MV4-11;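 further: cell viability readout measuring growth inhibition of human MV-4-11 cells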
Description: SANGER: Inhibition of human MV-4-11 cell growth in a cell viability assay.

NB6 = format: functional, cell-based, Homo sapiens; details: Homo sapiens, NB6;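 further: growth inhibition of NB6 cells, read out by a cell viability assay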
Description: SANGER: Inhibition of human NB6 cell growth in a cell viability assay.

NCI-H1299 = format: functional, cell-based; details: Homo sapiens;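 further: growth inhibition of human NCI-H1299 cells, read out by a cell viability assay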
Description: SANGER: Inhibition of human NCI-H1299 cell growth in a cell viability assay.

NCI-H1355 = format: functional, cell-based, Homo sapiens; details: Homo sapiens, NCI-H1355;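 further: growth inhibition of human NCI-H1355 cells, read out by a cell viability assay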
Description: SANGER: Inhibition of human NCI-H1355 cell growth in a cell viability assay.

NCI-H1395 = format: functional, cell-based, Homo sapiens; details: Homo sapiens, NCI-H1395;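 further: cell viability assay read-out quantifying reduced proliferation of human NCI-H1395 cells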
Description: SANGER: Inhibition of human NCI-H1395 cell growth in a cell viability assay.

NCI-H209 = format: functional, cell-based, Homo sapiens; details: Homo sapiens, NCI-H209;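 further: growth inhibition of human NCI-H209 cells, measured by a cell viability assay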
Description: SANGER: Inhibition of human NCI-H209 cell growth in a cell viability assay.

NCI-H747 = format: functional, cell-based, Homo sapiens; details: Homo sapiens, NCI-H747;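 further: growth inhibition of human NCI-H747 cells, read out by a cell viability assay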
Description: SANGER: Inhibition of human NCI-H747 cell growth in a cell viability assay.

NTERA-2-cl-D1 = format: functional, cell-based, Homo sapiens; details: Homo sapiens, NTERA-2-cl-D1;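 further: inhibition of cell growth, measured with a cell viability assay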
Description: SANGER: Inhibition of human NTERA-S-cl-D1 cell growth in a cell viability assay.

OCI-AML2 = format: functional, cell-based, Homo sapiens; details: Homo sapiens, OCI-AML2;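 further: growth inhibition of OCI-AML2 cells, read out with a cell viability assay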
Description: SANGER: Inhibition of human OCI-AML2 cell growth in a cell viability assay.

OCUB-M = format: functional, cell-based; details: Homo sapiens;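 further: growth inhibition of the cancer cell line, read out through a cell viability assay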
Description: SANGER: Inhibition of human OCUB-M cell growth in a cell viability assay.

OS-RC-2 = format: functional, cell-based, Homo sapiens; details: Homo sapiens, OS-RC-2;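 further: growth inhibition of human OS-RC-2 cells, measured by a cell viability assay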
Description: SANGER: Inhibition of human OS-RC-2 cell growth in a cell viability assay.

SK-MEL-2 = format: functional, cell-based, Homo sapiens; details: Homo sapiens, SK-MEL-2;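 further: growth inhibition of human SK-MEL-2 cells measured with a cell viability assay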
Description: SANGER: Inhibition of human SK-MEL-2 cell growth in a cell viability assay.

SNB-75 = format: functional, cell-based, Homo sapiens; details: Homo sapiens, SNB-75;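 further: cell viability assay measuring growth inhibition of human SNB-75 cells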
Description: SANGER: Inhibition of human SNB75 cell growth in a cell viability assay.

SW 954 = format: functional, cell-based, Homo sapiens; details: Homo sapiens, SW 954;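 further: growth inhibition of SW954 human cancer cells, read out as cell viability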
Description: SANGER: Inhibition of human SW954 cell growth in a cell viability assay.

8-MG-BA = format: functional, cell-based, Homo sapiens; details: Homo sapiens, 8-MG-BA;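 further: growth inhibition of 8-MG-BA cells, read out with a cell viability assay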
Description: SANGER: Inhibition of human 8-MG-BA cell growth in a cell viability assay.

A3-KAW = format: functional, cell-based, Homo sapiens; details: Homo sapiens, A3-KAW;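 further: growth inhibition of human A3-KAW cells, read out with a cell viability assay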
Description: SANGER: Inhibition of human A3-KAW cell growth in a cell viability assay.

A4-Fuk = format: functional, cell-based, Homo sapiens; details: Homo sapiens, A4-Fuk;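 further: growth inhibition of A4-Fuk cells, read out by a cell viability assay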
Description: SANGER: Inhibition of human A4-Fuk cell growth in a cell viability assay.

AU565 = format: functional, cell-based; details: Homo sapiens;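 further: cell viability assay measuring growth inhibition of human AU565 cells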
Description: SANGER: Inhibition of human AU565 cell growth in a cell viability assay.

BB30-HNC = format: functional, cell-based, Homo sapiens; details: Homo sapiens, BB30-HNC;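 further: growth inhibition of the cultured cell line, read out by a cell viability assay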
Description: SANGER: Inhibition of human BB30-HNC cell growth in a cell viability assay.

BB65-RCC = format: functional, cell-based, Homo sapiens; details: Homo sapiens, BB65-RCC;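 further: growth inhibition of the cell line, measured with a cell viability assay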
Description: SANGER: Inhibition of human BB65-RCC cell growth in a cell viability assay.

BFTC-905 = format: functional, cell-based; details: Homo sapiens
Description: SANGER: Inhibition of human BFTC-905 cell growth in a cell viability assay.

TE-10 = format: functional, cell-based, Homo sapiens; details: Homo sapiens, TE-10;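 further: growth inhibition of TE-10 cells, measured by a cell viability assay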
Description: SANGER: Inhibition of human TE-10 cell growth in a cell viability assay.

TE-12 = format: functional, cell-based, Homo sapiens; details: Homo sapiens, TE-12;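 further: growth inhibition of TE-12 cells, read out by a cell viability assay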
Description: SANGER: Inhibition of human TE-12 cell growth in a cell viability assay.

no-11 = format: functional, cell-based, Homo sapiens; details: Homo sapiens;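 further: growth inhibition of human NO-11 cells, read out with a cell viability assay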
Description: SANGER: Inhibition of human no-11 cell growth in a cell viability assay.

COLO-668 = format: functional, cell-based, Homo sapiens; details: Homo sapiens, COLO-668
Description: SANGER: Inhibition of human COLO-668 cell growth in a cell viability assay.

Measured: IC50

O=S(=O)(O)c1ccc2cc(/N=N/c3cc(S(=O)(=O)O)c4cccnc4c3O)ccc2c1
13.7 µM: NB6
> 16 µM: all other assays above

CN(C)CCOc1ccc(-c2nc(-c3ccncc3)c(-c3ccc4c(c3)CC/C4=N\O)[nH]2)cc1 [SB590885]
0.738 µM: SK-MEL-2
1.73 µM: CP50-MEL-B
not listed: HOP-62
> 5 µM: all other assays above

NC1(c2ccc(-c3nc4ccn5c(=O)[nH]nc5c4cc3-c3ccccc3)cc2)CCC1 [MK-2206]
3.11 µM: OS-RC-2
0.71 µM: OCUB-M
3.21 µM: NCI-H747
3.72 µM: MHH-PREB-1
3.88 µM: LU-134-A
2.18 µM: NCI-H1395
0.997 µM: LB2241-RCC
0.469 µM: A4-Fuk
2.24 µM: LB1047-RCC
0.632 µM: HT
2.75 µM: MV4-11
not listed: HOP-62
> 4 µM: all other assays above

CC1(C)CCC(c2ccc(Cl)cc2)=C(CN2CCN(c3ccc(C(=O)NS(=O)(=O)c4ccc(N[C@H](CCN5CCOCC5)CSc5ccccc5)c(S(=O)(=O)C(F)(F)F)c4)cc3)CC2)C1 [NAVITOCLAX]
0.087 µM: NCI-H209
0.583 µM: MEG-01
0.44 µM: KNS-81-FD
1.96 µM: EW-11
0.469 µM: MS-1
0.0297 µM: KY821
0.0159 µM: MV4-11
0.187 µM: LU-134-A
0.5 µM: NTERA-2-cl-D1
not listed: HOP-62
> 2 µM: all other assays above
